In patent EP3578559B1, “DYE FOR FLUORESCENT STAINING OF STRATUM CORNEUM, MANNER OF ITS SYNTHESIS AND APPLICATION IN MICROSCOPY, INCLUDING IDENTIFICATION OF ROUTES OF SUBSTANCES PENETRATION TO THE SKIN AND ASSESSMENT OF STRUCTURAL DISORDERS OF THIS LAYER” (Gdanski Uniwersytet Medyczny, priority 2018, dated 2019):
Entries after “also recorded” stand apart in the source; their conditions may differ. Like-named read-outs stand apart in the source and are kept apart here.

Columns and labels:
stratum corneum = assay: Fluorescent microscopy staining of stratum corneum of human skin ex vivo
Experimental: To obtain microscopic images of stratum corneum in a fluorescent microscope (Nikon Eclipse 50, Japan; the mercury lamp; the filter for wavelength: 330-380 nm; software for data acquisition NIS Elements AR 3.2.) Standard methodology was applied. A fragment of human skin ex vivo (1 cm x 1 cm) was subject to heat separation procedure (temperature 60 °C; 30 seconds) in order to separate epidermis (including stratum corneum) from the dermis. Fragments of the epidermis were placed on a microscopic glass, fluorescent dyes were applied and then incubated in thermostat for 10 minutes at 37 °C. After this time, the excess of dyes was removed by the use of laboratory absorption blotting paper and images of microscopic magnification were recorded in 10 x magnification of the lens, using the exposure time of 15-600 ms.

[1] = Octanol/water partition coefficient (logP), experimentally assigned; details: for octanol/water division ratio: ratio of concentrations of the dye in octanol/water
[2] = Fluorescence optical properties of the dye (Stokes shift, absorption/emission); type: physicochemical
[3] = commercial dye; cited from earlier work
[4] = post application of water / hydrophilic compounds, 10x

CC[N+]1(CC)CN2C(=N1)C(C(=O)[O-])=Cc1ccccc12 [P4]
characterization of hydrophilicity/lipophilicity with regard to diffusion to stratum corneum (stratum corneum; on the basis of the conducted research): too hydrophilic | staining of the lipids inside the lipid matrix or corneocytes proteins (stratum corneum; stratum corneum structures): lack of staining | logP (physchem): -1.9 | octanol/water division ratio [1]: 0,01

CCCCCCOC(=O)c1ccccc1-c1c2ccc(=[N+](CC)CC)cc-2oc2cc(N(CC)CC)ccc12 [RBHE, Rhodamine hexylester]
microscope image quality of stained structures (stratum corneum; after application of siloxane with a cyclic structure, compared with SAFQ8MeAKT, 10x): not as explicit | staining of canyons (stratum corneum; lipophilic compounds (siloxane D4), 10x): does not stain canyons so vividly | staining of canyons (stratum corneum; [4]): canyons are not visible; also recorded: does not dye canyons

CC[N+]1(CC)CN2C(=N1)C(C(=O)ON1C(=O)CCC1=O)=Cc1ccc(C)cc12.[Cl-] [SAFQ8MeAKT, 4-((2,5-dioxopyrrolidin-1-yloxy)carbonyl)-2,2-diethyl-8-methyl-1,2-dihydro-[1,2,4]triazolo[4,3-a]quinolin-2-ium chloride]
staining of corneocytes (stratum corneum; 10x): staining of the inside of corneocytes | staining of canyons (stratum corneum; [4]): canyons are stained | Stokes shift [2]: 95 nm | characteristic absorption [2]: 365 nm | characteristic emission [2]: 460 nm | logP (physchem): -0.43 | octanol/water division ratio [1]: 0,37 | greater lipophilicity than P4 dye ([1]; relative to P4 dye): approx. 40 times

CCN(CC)c1ccc2c(-c3ccc(S(=O)(=O)O)cc3S(=O)(=O)[O-])c3ccc(=[N+](CC)CC)cc-3oc2c1 [SRB, Sulforhodamines B]
staining of corneocytes (stratum corneum; 10x): noticeably stains corneocytes | staining of canyons (stratum corneum; dye alone (Fig. 11), 10x): does not dye the canyons | characteristic absorption [3]: 565 nm | characteristic emission [3]: 590 nm
